The values that follow are results of earlier work, collected in patent US7300792B2, “Lux expression in eukaryotic cells” (University of Tennessee Research Foundation, priority 2002, dated 2007).

For this data set, the system named is lower eukaryotes. The conditions noted are these: lower eukaryotes (yeast).

For `CCCCCCCCCC=O` [n-decylaldehyde], the Toxicity entry was “toxic to lower eukaryotes”.
